# Experimental data taken from patent US5516790A, “Synthesis and application of alkyl-substituted dibenzofurans as antitumorigenic agents” (Texas A&M University System Technology Licensing Office, priority 1994, dated 1996).
# Read-outs that look alike come from different tables or passages of the source.
# What was measured:
# nuclear ER [1] = test: Nuclear ER levels in MCF-7 cells; type: cell-based, human; conditions: TCDD (10 nM), MCDF (100 nM)
# Description: MCF-7 cells, obtained from American Type Culture Collection (Rockville, Ma.), were maintained at 37° C. in closed Corning T-25, 75 or 150 cm^2 flasks (Corning Glassworks, Corning, N.Y.) and passaged in logarithmic growth phase.
# For the 2,3,7,8-TCDD antiestrogenicity studies, cells were treated 24 hours prior to harvesting with various concentrations of 2,3,7,8-TCDD (0.1 nM to 100 nM 2,3,7,8-TCDD). Interactive effects between 2,3,7,8-TCDD and estradiol were conducted using these same concentrations of 2,3,7,8-TCDD and 10 nM estradiol. […]
# MCF-7 cells from a single near confluent T-25 flask were incubated at 37° C. for 0.5 hours prior to harvesting with 10 nM 2,4,6,7-[^3H]-estradiol. The medium was then decanted and the cells were rinsed once with Hanks' balanced salt solution containing 1 mM EDTA. The cells were collected by centrifugation, washed gently in 2 ml of TEDG buffer and homogenized in 300 μl of TEDG buffer containing protease inhibitors [soybean trypsin inhibitor 5 mg/ml (Sigma), leupetin 1 mg/ml (Sigma), and phenylmethylsulfonyl fluoride 1 mg/ml (Sigma) by 40 strokes of a Dounce homogenizer. The homogenate was centrifuged at 800×g for 10 minutes. The crude nuclear pellet was resuspended in 300 μl of TEDGK buffer (10 mM Tris-HCl, 1.5 mM EDTA-4Na, 10 mM dithiothreitol, 10% (v/v) glycerol, 0.8 M KCl, pH 8.5 at 4° C.). The nuclear ER levels were then determined as described below.
# The nuclear extract previously obtained was incubated with 10 nM [^3 H]-estradiol plus or minus radioinert diethylstilbestrol for 1 hour at 0-4° C., with resuspension by agitation every 15 minutes. The sample was then centrifuged at 180,000×g for 30 minutes, then 200 μl of the supernatant obtained was layered onto linear 1-20% sucrose gradients prepared in TEDGMK buffer. As before, the gradients were centrifuged at 406,000×g for 2.5 hours in a vertical rotor. Following centrifugation, 30 fractions of […] were collected and the radioactivity in each sample was determined.
# female rat uterus = type: in vivo, female Sprague/Dawley rats
# Description: (§1) TCDD or MCDF was co-administered with a second dose of estradiol and the animals were killed 48-hours later. A second group of animals was similarly treated with corn oil, TCDD, MCDF, or TCDD plus MCDF, all administered in corn oil at 10 ml/kg and terminated 72 hours later.
# (§2) The animals were terminated by cervical dislocation. Livers were perfused with ice-cold TEDG buffer (10 mM Tris-HCl, 1.5 mM EDTA-4Na, 1 mM dithiothreitol, 10% glycerol (v/v), pH 7.4). Following perfusion in situ, livers were removed, weighed, and homogenized in ice-cold TEDG buffer. Uteri were also removed, weighed, and homogenized in ice-cold buffer. The homogenates were then centrifuged at 800×g […] for 15 minutes and the nuclear pellets were stored at -80° C. The supernatants were further centrifuged at 180,000×g for 1.5 hour. The cytosolic supernatant was also stored at -80° C. Estrogen and progesterone receptor levels were determined within 7 days.
# [2] = tested on: progesterone receptor (PR); type: in vivo, female Sprague/Dawley rats
# Description: as §1, §2
# (§3) Estrogen and progesterone receptor levels were determined by the hydroxyapatite assay as described by Clark et al. (J. Steroid, Biochem., 16, 323-328 (1982)). […] Following the incubations, samples were counted and specific binding was calculated by subtraction of nonspecific from total binding. Assuming one steroid molecule binds to one estrogen/progesterone receptor, the number of moles of receptor can be calculated given the specific activity of the radioligand. […] Significant differences were determined by ANOVA.
# estrogen receptor (ER) = type: in vivo, female Sprague/Dawley rats
# Description: as §1, §2, §3
# nuclear ER [3] = conditions: cited from earlier work
# progesterone receptor = conditions: female rat; cited from earlier work
# estrogen receptor = conditions: female rat; cited from earlier work
# [4] = Table 11, compound alone: TCDD 0.256 or MCDF 100 μmol/kg, or estradiol
smiles,measurement,setting,value
"Clc1cc2c(cc1Cl)Oc1cc(Cl)c(Cl)cc1O2 [TCDD, 2,3,7,8-tetrachloridibenzo-p-dioxin]",nuclear ER levels,nuclear ER [1],decrease in nuclear ER levels
same,Uterine Wet Weight,"female rat uterus; compound alone: TCDD 0.256 or MCDF 100 μmol/kg, or estradiol",0.086 ± 0.011 % body wt
same,Uterine Wet Weight,female rat uterus; cotreatment with E-2,0.245 ± 0.026 % body wt
same,Hepatic PRc,[2]; TCDD 0.256 μmol/kg,38.3 ± 3.9 fmol/mg protein
same,Hepatic PRn,[2]; TCDD 0.256 μmol/kg,5.9 ± 1.1 fmol/mg protein
same,Uterine PRc,[2]; TCDD 0.256 μmol/kg,82 ± 30.2 fmol/mg protein
same,Uterine PRn,[2]; TCDD 0.256 μmol/kg,190 ± 14.2 fmol/mg protein
same,Hepatic PRc,[2]; [4],61.9 ± 7.3 fmol/mg protein
same,Hepatic PRn,[2]; [4],5.9 ± 0.4 fmol/mg protein
same,Uterine PRc,[2]; [4],898.0 ± 49.2 fmol/mg protein
same,Uterine PRn,[2]; [4],180 ± 9.9 fmol/mg protein
same,Hepatic PRc,"[2]; Table 11, cotreatment with E-2",110.3 ± 8.3 fmol/mg protein
same,Hepatic PRn,"[2]; Table 11, cotreatment with E-2",6.8 ± 1.3 fmol/mg protein
same,Uterine PRc,"[2]; Table 11, cotreatment with E-2",811.3 ± 27.1 fmol/mg protein
same,Uterine PRn,"[2]; Table 11, cotreatment with E-2",511 ± 19.3 fmol/mg protein
same,Hepatic ERc,estrogen receptor (ER); TCDD 0.256 μmol/kg,1.7 ± 0.3 fmol/mg protein
same,Hepatic ERn,estrogen receptor (ER); TCDD 0.256 μmol/kg,2.3 ± 0.6 fmol/mg protein
same,Uterine ERc,estrogen receptor (ER); TCDD 0.256 μmol/kg,92.1 ± 8.2 fmol/mg protein
same,Uterine ERn,estrogen receptor (ER); TCDD 0.256 μmol/kg,10.6 ± 0.6 fmol/mg protein
same,Hepatic ERc,estrogen receptor (ER); [4],2.2 ± 0.8 fmol/mg protein
same,Hepatic ERn,estrogen receptor (ER); [4],2.4 ± 0.4 fmol/mg protein
same,Uterine ERc,estrogen receptor (ER); [4],57.8 ± 6.3 fmol/mg protein
same,Uterine ERn,estrogen receptor (ER); [4],11.7 ± 0.8 fmol/mg protein
same,Hepatic ERc,"estrogen receptor (ER); Table 11, cotreatment with E-2",6.8 ± 1.0 fmol/mg protein
same,Hepatic ERn,"estrogen receptor (ER); Table 11, cotreatment with E-2",4.0 ± 0.8 fmol/mg protein
same,Uterine ERc,"estrogen receptor (ER); Table 11, cotreatment with E-2",82.8 ± 5.4 fmol/mg protein
same,Uterine ERn,"estrogen receptor (ER); Table 11, cotreatment with E-2",17.4 ± 1.0 fmol/mg protein
same,immunoreactive ER protein,"nuclear ER [3]; concentration-dependent, antibodies to human ER",decrease in immunoreactive ER protein
same,levels of occupied nuclear ER complex,nuclear ER [3]; cotreatment 10 nM TCDD plus [3H]-17β-estradiol,did not affect
same,occupied nuclear ER levels,nuclear ER [3]; pretreatment with TCDD 6 or 12 hours prior to radiolabeled hormone,significant downregulation
same,constitutive and 17β-estradiol induced uterine and hepatic progesterone receptor levels,progesterone receptor,decreased
same,constitutive and 17β-estradiol induced uterine and hepatic estrogen receptor levels,estrogen receptor,decreased
